# According to PMC11278233, “The Composition of Triterpene Glycosides in the Sea Cucumber Psolus peronii: Anticancer Activity of the Glycosides against Three Human Breast Cancer Cell Lines and Quantitative Structure–Activity Relationships (QSAR)” (Marine Drugs, 2024):
# Read-outs that look alike come from different tables or passages of the source.
# Columns and labels:
# [1] = test system: MDA-MB-231 cells; assay: Wound healing (scratch) assay, MDA-MB-231; assay type: cell-based, human; settings: 2 μM, within 12 h, control 99.83 ± 0.08%
# Method: (§1) To analyze the influence of the tested compounds on tumor cell migration, MCF-7 and MDA-MB-231 (5 × 10^5) cells attached to the plate’s plastic bottom were separated using a silicone insert from special migration plates (Culture-insert 2Well 24, ibiTreat). When the insert was removed, a gap of […] (according to the manufacturer’s data) between the cells was left. After 24 h, the cells were washed twice with PBS to remove cell debris and floating cells, treated with 1 and 2 μM of psolusosides A (2) and L (6) and placed in the real-time live cell imaging system Juli Stage (NanoEntek, Seoul, South Korea). Cells treated with the culture medium only were used as the control. The cell migration was analyzed in real time (15 min for each cycle). For the MDA-MB-231 cells, observations were carried out for 12 h (until complete healing of the wound area in the control); for MCF-7 cells, this time was 48 h. The results were processed using the program Juli^TM Stat (NanoEntek, South Korea).
# [2] = in vitro; assay type: cell-based, human; settings: human
# [3] = test system: non-transformed epithelial cells of the mammary gland MCF-10A; assay: in vitro; assay type: cell-based, human
# [4] = test system: human erythrocytes; assay: Hemolytic activity; assay type: cell-based; settings: Erythrocyte, 1 h at 37 °C, lysis of 50% of erythrocytes
# Method: A total of 450 g of human blood (B(III) Rh+) was used to obtain erythrocytes by centrifuging it three times for 5 min with phosphate-buffered saline (PBS) (pH 7.4) at 4 °C on the centrifuge LABOFUGE 400R (Heraeus, Hanau, Germany). Ice-cold PBS (pH 7.4) was used for resuspension of the erythrocyte residue to a final optical density of 1.5 at 700 nm, which was kept on ice. Then, 20 µL of the tested compound solutions was added to 180 µL of the erythrocyte suspension in V-bottom 96-well plates and exposed for 1 h at 37 °C. The layers were separated by centrifugation at 900 g for 10 min on the laboratory centrifuge LMC-3000 (Biosan, Riga, Latvia). A total of 100 µL of the supernatant was carefully decanted and transferred into a new flat plate. The values of erythrocyte lysis were measured on a microplate photometer Multiskan FC (Thermo Fisher Scientific, Waltham, MA, USA) at λ = 570 nm as the hemoglobin concentration in the supernatant. […] All the experiments were carried out in triple repetitions; p ≤ 0.05.
# [5] = test system: human breast cancer cell line MCF-7; assay: cells; assay type: cell-based; settings: for Selectivity Index MCF-7: ratio of IC50 for healthy (MCF-10A) and cancer cells
# [6] = test system: MDA-MB-231 cells; assay: Colonogenic (colony formation) assay, MDA-MB-231; assay type: cell-based; settings: Homo sapiens, 336 h, 2 μM, 14 days, read-out: inhibition of the growth of colonies
# Method: (§2) The cancer cells (MDA-MB-231, MCF-7 and T-47D lines) were cultured on 6-well plates at a density of 1 × 10^3 per well in control media (MEM media, 10% FBS, 10,000 U/mL of penicillin and […] of streptomycin) or in media supplemented with different concentrations of the glycosides. The cells were incubated for 14 days at 37 °C in a 5% CO2 humidified incubator. Then, the colonies were fixed with methanol (25 min), stained with a 0.5% solution of crystal violet (25 min), washed with H2O and dried in air. Counting of the grown colonies was carried out using a BIO-PRINT-Cx4 Edge-Fixed Pad-Container (Vilber, Collegien, France) device and using the software Bio-Vision SOFTWARE User and service manual-v18.01 (Vilber, Collegien, France). The results are presented as % of colony inhibition in relation to the control.
# [7] = test system: triple-negative human breast cancer cell line MDA-MB-231; assay: cells; assay type: cell-based; settings: for IC50: Homo sapiens; for Selectivity Index MDA-MB-231: ratio of IC50 for healthy (MCF-10A) and cancer cells
# [8] = test system: MCF-7 cells; assay: Wound healing (scratch) assay, MCF-7; assay type: cell-based, human; settings: 1 and 2 μM, within 48 h, control migrated by 84.60 ± 2.12%
# Method: as §1
# [9] = test system: T-47D cells; assay: Colonogenic (colony formation) assay, T-47D; assay type: cell-based, human; settings: 1 μM, 14 days
# Method: as §2
# [10] = test system: MCF-7 cells; assay: Colonogenic (colony formation) assay, MCF-7; assay type: cell-based; settings: Homo sapiens, MCF7, 336 h, 14 days
# Method: as §2
# [11] = test system: human breast cancer cell line T-47D; assay: cells; assay type: cell-based; settings: for Selectivity Index T-47D: ratio of IC50 for healthy (MCF-10A) and cancer cells
compound,measurement,setting,value
"C=C(C)CCC[C@]1(C)OC(=O)[C@]23CC=C4[C@@H](CC[C@H]5C(C)(C)[C@@H](O[C@@H]6OC[C@@H](O[C@@H]7O[C@H](COS(=O)(=O)[O-])[C@@H](O)[C@H](O)[C@H]7O)[C@H](O)[C@H]6O[C@@H]6O[C@H](C)[C@@H](O[C@@H]7O[C@H](COS(=O)(=O)[O-])[C@@H](O)[C@H](O[C@@H]8O[C@H](COS(=O)(=O)[O-])[C@@H](O)[C@H](OC)[C@H]8O)[C@H]7O)[C@H](O)[C@H]6O)CC[C@]45C)[C@]2(C)CC(=O)[C@@H]31.[Na+].[Na+].[Na+] [psolusoside L (6), psolusoside L]",overgrowth of the wound area (migration),[1],6.03 ± 0.02%
same,IC50 at 24 h,[2],33.08 ± 0.29 µM
same,cytotoxicity to non-transformed MCF-10A cells (result in words),[3],slightly cytotoxic
same,IC50,[4],1.83 ± 0.14 µM
same,IC50,"[5]; Homo sapiens, MCF7, 24 h, read-out: Cytotoxicity, IC50 µM MCF-7",13.7 ± 0.31 µM
same,Selectivity Index MCF-7,[5]; 24 h of exposition,2.41
same,Selectivity Index MCF-7,[5]; 48 h of exposition,1.33
same,Selectivity Index MCF-7,[5]; 72 h of exposition,0.66
same,inhibition at 2 µM,[6],90.4 ± 0.92%
same,IC50,"[7]; MDA-MB-231, 24 h, read-out: Cytotoxicity, IC50 µM MDA-MD-231",6.39 ± 0.3 µM
same,IC50,"[7]; MDA-MB-231, MTT assay, 48 h incubation, read-out: IC50 against MDA-MB-231 cells (antiproliferative effect)",1.67 ± 0.16 µM
same,IC50,"[7]; MDA-MB-231, MTT assay, 72 h incubation, read-out: IC50 against MDA-MB-231 cells (antiproliferative effect)",1.24 ± 0.02 µM
same,Selectivity Index MDA-MB-231,[7]; 24 h of exposition,5.18
same,Selectivity Index MDA-MB-231,[7]; 48 h of exposition,5.83
same,Selectivity Index MDA-MB-231,[7]; 72 h of exposition,4.56
same,reduction of the migration of cells to the scratch area,[8],33–42%
same,growth of colonies (result in words),[9],completely blocked
same,inhibition at 1 µM,[10]; 1 μM,19.6 ± 0.24%
same,inhibition at 2 µM,[10]; 2 μM,89.67 ± 0.28%
same,inhibition at 5 µM,[10]; 5 μM,97.83 ± 0.25%
same,IC50,"[11]; Homo sapiens, T47D, 24 h, read-out: Cytotoxicity, IC50 µM T-47D",5.45 ± 0.04 µM
same,Selectivity Index T-47D,[11]; 24 h of exposition,6.07
same,Selectivity Index T-47D,[11]; 48 h of exposition,1.25
same,Selectivity Index T-47D,[11]; 72 h of exposition,0.91
